Test [1] addresses Recombinant human c-KIT kinase (Homo sapiens (Human), UniProt P10721). In words: c-KIT kinase chemiluminescence assay (ADP-Glo). The conditions noted are these: ATP 50 μM. In kind it is biochemical. A digest of the protocol:
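ADP formed by c-KIT on polyEY over 2 h at RT (after 30 min enzyme preincubation; Tris pH 7.5, MgCl2, BSA, DTT buffer) was detected by ADP-Glo luminescence. IC50 and Hill slope were fitted to control-normalized activity across compound concentrations.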
(ADP-Glo turns the ADP formed in a reaction into a luminescent signal.)

A further test has as its system M-07e cells. The experiment in a line: M-07e cellular assay (SCF-mediated cell proliferation). The conditions noted are these: Homo sapiens, 72 hours, CellTiter Glo. In kind it is cell-based. The protocol:
M-07e cells (Creative Bioarray, CSC-C0249) which endogenously express human c-KIT were used to evaluate the effect of compounds on stem cell factor (SCF)-mediated cell proliferation. M-07e cells were cultured in growth media (RPMI+10% FBS+1% penicillin/streptomycin+10 ng/mL GM-CSF) at 5E5-1.5E6 cells/mL, replenishing media every 3-4 days. 1.5E4 cells were seeded per well in 384 well tissue culture treated plates in 20 μL assay media (RPMI+[…]+1% penicillin/streptomycin) without growth factor stimulation and incubated at 37° C. in a CO2 humidity-controlled incubator. Twenty-four hours later, three-fold serially diluted test compounds in media containing SCF (at the previously determined EC90) were added to the plated M-07e cells and incubated for an additional 72 hours. Cell viability was determined by adding 25 μL CellTiter Glo (Promega) to the cells and the luminescence was measured using a Perkin Elmer Envision plate reader. The EC50 was determined using GraphPad Prism. Percent cell growth was determined after normalizing the curve to the mean RLU high control (no compound control wells) at 100% and the mean RLU low control (no SCF control wells) at 0%.
(In ATP-based viability assays light output follows the ATP content of the culture.)

The values that follow come from patent US20250059174A1, “Pharmaceutical Compounds and Compositions as C-Kit Kinase Inhibitors” (Enanta Pharmaceuticals, Inc., priority 2023, published 2025).

Sequence of Recombinant human c-KIT kinase (P10721 26-976): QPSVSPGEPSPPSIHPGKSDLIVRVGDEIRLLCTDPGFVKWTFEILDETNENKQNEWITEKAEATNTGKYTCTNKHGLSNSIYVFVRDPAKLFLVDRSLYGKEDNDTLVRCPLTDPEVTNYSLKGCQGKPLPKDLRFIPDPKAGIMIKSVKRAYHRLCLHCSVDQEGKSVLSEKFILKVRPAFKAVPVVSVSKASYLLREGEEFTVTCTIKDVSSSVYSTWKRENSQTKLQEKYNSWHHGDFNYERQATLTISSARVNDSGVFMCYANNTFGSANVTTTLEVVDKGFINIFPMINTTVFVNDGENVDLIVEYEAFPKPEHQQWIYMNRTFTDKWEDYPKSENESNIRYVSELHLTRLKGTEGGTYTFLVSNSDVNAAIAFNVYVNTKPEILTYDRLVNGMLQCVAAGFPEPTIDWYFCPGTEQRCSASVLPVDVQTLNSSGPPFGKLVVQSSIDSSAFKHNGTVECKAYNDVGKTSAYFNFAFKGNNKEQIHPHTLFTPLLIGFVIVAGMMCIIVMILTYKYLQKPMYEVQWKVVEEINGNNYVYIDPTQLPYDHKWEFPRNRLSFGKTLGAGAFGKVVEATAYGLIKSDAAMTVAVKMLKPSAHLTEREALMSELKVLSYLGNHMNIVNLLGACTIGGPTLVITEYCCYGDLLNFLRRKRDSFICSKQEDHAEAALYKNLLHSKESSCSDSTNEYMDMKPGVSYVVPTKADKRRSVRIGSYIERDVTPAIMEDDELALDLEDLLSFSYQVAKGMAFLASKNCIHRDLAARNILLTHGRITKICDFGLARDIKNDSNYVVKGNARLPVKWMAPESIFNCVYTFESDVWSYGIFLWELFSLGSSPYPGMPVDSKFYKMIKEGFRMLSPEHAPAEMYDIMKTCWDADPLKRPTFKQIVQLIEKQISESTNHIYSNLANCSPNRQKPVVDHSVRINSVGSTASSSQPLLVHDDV

The IC50 is the concentration that inhibits the measured activity by half. Broadly, the EC50 is the concentration that produces a half-maximal response. On to `Cc1ccc(-c2noc([C@H]3C[C@@H]3F)n2)cc1NC(=O)c1cnc(C)n1C` [Example 4], for which the IC50 in test [1] was over 1000 nM. Moreover, the concentration for a half-maximal effect (EC50) in the test on M-07e cells is over 1000 nM.
Regarding `Cc1ncc(-c2ccc(OC(F)F)nc2)cc1NC(=O)c1cnn2ccc(N3CC4(COC4)C3)cc12` [Example 330], in test [1], the IC50 was in the range of 100 to 1000 nM. Also, in the test with M-07e cells, the EC50 is under 100 nM.
The matching figures for `Cc1ccc(-c2noc([C@H]3C[C@@H](OC(F)F)C3)n2)cc1NC(=O)c1cnn2cc(-c3cn(C(F)F)nn3)ccc12` [Example 275]: under 100 nM and under 100 nM.
The matching figures for `Cc1ncc(-c2ccc(OC(F)(F)F)cn2)cc1NC(=O)c1cnn2ccc(N3CC4(C3)CC(O)(C(F)F)C4)cc12` [Example 333]: under 100 nM and under 100 nM.
Regarding `Cc1ccc(-c2noc([C@H]3C[C@@H]3F)n2)cc1NC(=O)c1cnc(-c2ccc(NC(=O)OC(C)(C)C)nc2)o1` [Example 298], the IC50 in test [1] is over 1000 nM. The molecule further gave an EC50 in the test on M-07e cells of 100 to 1000 nM.
As to `Cc1ccc(-c2noc([C@H]3C[C@@H]3F)n2)cc1NC(=O)c1cnn(-c2ccccc2)c1` [Example 23], the IC50 in test [1] fell in the range of 100 to 1000 nM. Besides, in the test on M-07e cells, the EC50 fell in the range of 100 to 1000 nM.
On to `Cc1ncc(-c2noc(N3CC(F)(F)C3)n2)cc1NC(=O)c1cnn2ccc(N3CC4(COC4)C3)cc12` [Example 281-120], for which the IC50 in test [1] was 100 to 1000 nM. The EC50 in the test on M-07e cells was in the range of 100 to 1000 nM.
For `Cc1ccc(-c2noc([C@H]3C[C@@H]3F)n2)cc1NC(=O)c1cnc(-c2cccc(NC(=O)OC(C)(C)C)n2)o1` [Example 306], the IC50 in test [1] was over 1000 nM. This molecule also came in with an EC50 in the test with M-07e cells of over 1000 nM.
Take `Cc1ccc(-c2noc([C@H]3C[C@@H]3F)n2)cc1NC(=O)c1cnc(-c2cccc(N)n2)o1` [Example 305]: the IC50 in test [1] was over 1000 nM. Further, the EC50 in the test with M-07e cells was over 1000 nM.
With `Cc1ccc(-c2noc([C@H]3C[C@@H]3F)n2)cc1NC(=O)c1cnn2ccc(N3CC[C@@H](N)C3)cc12` [Example 197], the IC50 in test [1] lay within 100 to 1000 nM. The EC50 with M-07e cells was under 100 nM.
Take `COC(=O)N1CC(c2nc(-c3ccc(Cl)c(NC(=O)c4cnn5cc(-c6cn(C(F)F)nn6)ccc45)c3)no2)C1` [Example 132-17]: in test [1], the IC50 was under 100 nM. Besides, the concentration for a half-maximal effect (EC50) in the test on M-07e cells was under 100 nM.
Regarding `Cc1ccc(-c2noc([C@H]3C[C@@H]3F)n2)cc1NC(=O)c1cnn2cc(F)c(-c3c(C)nn(CC(C)(C)O)c3C)cc12` [Example 164], the IC50 in test [1] was in the range of 100 to 1000 nM. In the test on M-07e cells, this molecule came in with an EC50 of 100 to 1000 nM.
As for `Cc1c(F)cc(-c2noc([C@H]3C[C@@H]3F)n2)cc1NC(=O)c1cnn2ccc(N3CC4(COC4)C3)cc12` [Example 281-54], the IC50 in test [1] was under 100 nM. In the test with M-07e cells, the concentration for a half-maximal effect (EC50) was under 100 nM.
Take `Cc1ccc(-c2noc([C@H]3C[C@@H]3F)n2)cc1NC(=O)c1cnc(-c2ccc3c(c2)CC(=O)N3C)o1` [Example 308-55]: in test [1], the IC50 is 100 to 1000 nM. In the test with M-07e cells, this molecule gave an EC50 of 100 to 1000 nM.
`Cc1ccc(-c2noc([C@H]3C[C@@H]3F)n2)cc1NC(=O)c1cnn2c1CCC2` [Example 36]: the 50% inhibitory concentration (IC50) in test [1] was over 1000 nM. Also, the EC50 in the test with M-07e cells was over 1000 nM.
For `Cc1ccc(-c2noc([C@H]3C[C@@H]3F)n2)cc1NC(=O)c1cnn2cc(-c3cn(C(F)(F)C(=O)O)nn3)ccc12` [Example 132-4], the half-inhibitory concentration (IC50) in test [1] was under 100 nM. In addition, the EC50 in the test on M-07e cells is over 1000 nM.
For `Cc1ccc(-c2noc([C@H]3C[C@@H]3F)n2)cc1NC(=O)c1cnn2ccc(N3CC4(CNC4)C3)cc12` [Example 211], the IC50 in test [1] is under 100 nM. Besides, in the test on M-07e cells, the EC50 is 100 to 1000 nM.
The matching figures for `Cc1ncc(-c2noc(N3CC(F)(F)C3)n2)cc1NC(=O)c1cnn2ccc(N3CC4(C3)CC(O)(C(F)F)C4)cc12` [Example 281-121]: 100 to 1000 nM and under 100 nM.
`Cc1ccc(-c2noc([C@H]3C[C@@H]3F)n2)cc1NC(=O)c1cnc(-c2cccc3cc[nH]c23)o1` [Example 308-41]: the concentration for half-maximal inhibition (IC50) in test [1] was in the range of 100 to 1000 nM. The EC50 in the test on M-07e cells was over 1000 nM.
`Cc1ccc(-c2noc([C@H]3C[C@@H]3F)n2)cc1NC(=O)c1cnn2ccc(-c3cnn(CCO)c3)cc12` [Example 138]: the IC50 in test [1] was under 100 nM. Also, in the test with M-07e cells, the EC50 was under 100 nM.
`O=C(Nc1cc(-c2noc(C3CC(F)(F)C3)n2)ccc1Cl)c1cnn2ccc(N3CC4(C3)CC(O)(C(F)F)C4)cc12` [Example 281-30]: the half-maximal inhibitory concentration (IC50) in test [1] was under 100 nM. This molecule also showed an EC50 in the test with M-07e cells of under 100 nM.
On to `O=C(Nc1cc(-c2noc(N3CC(F)(F)C3)n2)ccc1Cl)c1cnn2ccc(N3CC4(C3)CC(O)(C(F)F)C4)cc12` [Example 281-119], for which, in test [1], the IC50 was 100 to 1000 nM. In addition, the EC50 in the test on M-07e cells is under 100 nM.
For `O=C(Nc1cc(-c2ccc(C3CC3)cn2)ccc1Cl)c1cnn2ccc(N3CC4(COC4)C3)cc12` [Example 350] the same measures were over 1000 nM and over 1000 nM.
Consider `Cc1ccc(-c2noc([C@H]3C[C@@H]3F)n2)cc1NC(=O)c1cnn2ccc(N3CC4(CNC(=O)C4)C3)cc12` [Example 178], for which the IC50 in test [1] was under 100 nM. Further, the concentration giving a half-maximal response (EC50) in the test with M-07e cells was under 100 nM.
With `COc1ccccc1-c1ncc(C(=O)Nc2cc(-c3noc([C@H]4C[C@@H]4F)n3)ccc2C)o1` [Example 284], in test [1], the IC50 was over 1000 nM. Besides, in the test with M-07e cells, the 50% effective concentration (EC50) was over 1000 nM.
`Cc1ccc(-c2noc([C@H]3C[C@@H]3F)n2)cc1NC(=O)c1cnn2ccc(N3CC[C@H](N)C3)cc12` [Example 198]: in test [1], the IC50 was under 100 nM. In the test with M-07e cells, this molecule had an EC50 of 100 to 1000 nM.
In the case of `COC(=O)N1CC(c2nc(-c3ccc(C)c(NC(=O)c4cnn5ccc(N6CC7(C6)CC(O)(C(F)F)C7)cc45)c3)no2)C1` [Example 281-53], the IC50 in test [1] was under 100 nM. In the test on M-07e cells, this molecule yielded an EC50 of under 100 nM.
As to `Cc1ncc(-c2ncc(OC(F)(F)F)cn2)cc1NC(=O)c1cnc(-c2ccc3c(c2)CC(=O)N3)o1` [Example 358, N-(2-methyl-5-(5-(trifluoromethoxy)pyrimidin-2-yl)pyridin-3-yl)-2-(2-oxoindolin-5-yl)oxazole-5-carboxamide], the IC50 in test [1] was over 1000 nM. Moreover, the EC50 in the test with M-07e cells was 100 to 1000 nM.
For `Cc1ccc(-c2noc([C@H]3C[C@@H]3F)n2)cc1NC(=O)c1cnn2cc(-c3cn(CCO)nn3)ccc12` [Example 109] the same measures were under 100 nM and under 100 nM.
For `Cc1ccc(-c2noc([C@H]3C[C@@H]3F)n2)cc1NC(=O)c1cnc(-c2cccc3c2NC(=O)C3)o1` [Example 308-33] the same measures were over 1000 nM and over 1000 nM.
As for `Cc1ccc(-c2noc([C@H]3C[C@@H]3F)n2)cc1NC(=O)c1cnn2ccc(-c3cnc(N)cc3C)cc12` [Example 171-28], the IC50 in test [1] was under 100 nM. The molecule further returned an EC50 with M-07e cells of under 100 nM.
Turning to `Cc1ccc(-c2noc([C@H]3C[C@@H]3F)n2)cc1NC(=O)c1cnn2cc(-c3cccnc3)ccc12` [Example 151], the IC50 in test [1] was under 100 nM. This molecule yielded an EC50 in the test on M-07e cells of under 100 nM.
In the case of `Cc1ccc(-c2noc([C@H]3C[C@@H]3F)n2)cc1NC(=O)c1cnn2cc(-c3nn[nH]n3)ccc12` [Example 130], the IC50 in test [1] was 100 to 1000 nM. In the test with M-07e cells, this molecule registered an EC50 of over 1000 nM.
For `Cc1ccc(-c2noc([C@H]3C[C@@H]3F)n2)cc1NC(=O)c1cnn2ccc(N3CCN(C(=O)OC(C)(C)C)C[C@H]3C)cc12` [Example 190] the same measures were 100 to 1000 nM and 100 to 1000 nM.
`Cc1ccc(-c2ncc(C3CC3)cn2)cc1NC(=O)c1cnn2ccc(N3CC4(C3)CC(O)(C(F)F)C4)cc12` [Example 339]: the IC50 in test [1] was under 100 nM. The EC50 in the test on M-07e cells is under 100 nM.
On to `Cc1ccc(-c2noc([C@H]3C[C@@H]3F)n2)cc1NC(=O)c1cnn2ccc(N3CCN(C(=O)OC(C)(C)C)[C@H](C)C3)cc12` [Example 241-7], for which, in test [1], the IC50 was 100 to 1000 nM. Further, in the test with M-07e cells, the 50% effective concentration (EC50) is under 100 nM.
On to `Cc1ccc(-c2noc([C@H]3C[C@@H]3F)n2)cc1NC(=O)c1cnn2ccc(-c3c(C)n[nH]c3C)cc12` [Example 161], for which the IC50 in test [1] is under 100 nM. This molecule yielded a 50% effective concentration (EC50) with M-07e cells of under 100 nM.
Take `Cc1ccc(-c2nc3n(n2)CCN(C(=O)C2CC2)C3)cc1NC(=O)c1cnn2ccc(N3CC4(C3)CC(O)(C(F)F)C4)cc12` [Example 323]: the IC50 in test [1] was 100 to 1000 nM. For the same molecule, in the test on M-07e cells, the EC50 was over 1000 nM.
The matching figures for `Cc1ccc(-c2noc([C@H]3C[C@@H]3F)n2)cc1NC(=O)c1cnc(-c2ccc3oc(=O)[nH]c3c2)o1` [Example 307]: over 1000 nM and 100 to 1000 nM.
For `Cc1ccc(-c2noc([C@H]3C[C@@H]3F)n2)cc1NC(=O)c1cnn2ccc(N3CC4(COC4)C3)cc12` [Example 43] the same measures were under 100 nM and under 100 nM.
With `Cc1ccc(-c2noc(C3CCN(C(=O)[C@H]4C[C@@H]4F)CC3)n2)cc1NC(=O)c1cnn2ccc(N3CC4(C3)CC(O)(C(F)F)C4)cc12` [Example 281-97], the IC50 in test [1] was in the range of 100 to 1000 nM. In the test on M-07e cells, this molecule displayed an EC50 of 100 to 1000 nM.
Consider `Cc1ccc(-c2noc(C3CN(C(=O)[C@H]4C[C@@H]4F)C3)n2)cc1NC(=O)c1cnn2ccc(N3CC4(COC4)C3)cc12` [Example 281-32], for which the IC50 in test [1] was in the range of 100 to 1000 nM. The molecule also displayed an EC50 in the test with M-07e cells of 100 to 1000 nM.
On to `COC(=O)Nc1ccc(-c2ncc(C(=O)Nc3cc(-c4noc([C@H]5C[C@@H]5F)n4)ccc3C)o2)cc1` [Example 308-48], for which, in test [1], the IC50 was in the range of 100 to 1000 nM. Further, the EC50 in the test on M-07e cells was 100 to 1000 nM.
